Measured values: patent US20130236529A1, “COMPOSITION AND METHODS TO ENHANCE ANTI-OXIDATION, GUT FLORA AND IMMUNITY IN PETS” (FLAVITPURE, INC., priority 2012, published 2013)

Experiments:
[1] = oxidation of 2′-deoxyguanosine, Fenton reaction catalyzed by copper; cited from earlier work
[2] = ORAC hydro antioxidant capacity assay
Text: The majority of HAT-based assays apply a competitive reaction scheme, in which antioxidant and substrate compete for thermally generated peroxyl radicals through the decomposition of azo compounds. ORAC is an assay for the […] oxygen radical absorbance capacity. The ORAC hydro tests the capacity dihydroquercetin generated hydrogen atom transfer (HAT) to compete for thermally generated peroxyl radicals and hydroxyl radicals. For the latter it is necessary to use the ORAC assay test. Unlike electron transfer based assays that measure an antioxidant's reducing capacity, and the hat-based assays measure the hydrogen atom donating capacity. The hydrogen atom transfer is a key step in the radical chain reaction. Therefore, the hat-based assays are more relevant to the radical chain-breaking antioxidant capacity. Among all the hat-based assays, ORAC adopted an AUC (area under curve) technique to quantify antioxidant capacity. […] This approach unifies the lag time method and initial rate method, and it is particularly useful for food samples, which often contain multiple ingredients and have complex reaction kinetics. Therefore, the ORAC assay has been broadly applied in academics and the food and supplement industry as the method of choice to quantify antioxidant capacity. […]

[3] = test system: umbilical vein endothelial (HUVE) cells; conditions: cited from earlier work
CYP2E1 = conditions: microarray, in the presence of taxifolin; cited from earlier work
GSTM1 = conditions: microarray, in the presence of taxifolin; cited from earlier work
[4] = test system: human lung embryonic fibroblasts (TIG-1); conditions: TIG-1 cells; cited from earlier work
NQO1 = conditions: microarray, in the presence of taxifolin; cited from earlier work
[5] = relative to quercetin; cited from earlier work

Compound	pro-oxidant activity [1]	orachydro value ([2]; per 420 mg capsule)	orachydro value ([2]; per gram)	50% lethal concentration [3] [µmol]	expression of phase I detoxification enzyme CYP2E1 (CYP2E1)	expression of phase II detoxification enzyme GSTM1 (GSTM1)	50% lethal concentration [4] [µmol]	expression of phase II detoxification enzyme NQO1 (NQO1)	times less mutagenic than quercetin [5] [times]
catechin [reference compound]	did not present pro-oxidant activity								
O=C1c2c(O)cc(O)cc2O[C@H](c2ccc(O)c(O)c2)[C@H]1O [Dihydroquercetin]	did not present pro-oxidant activity	≥ 300 micromole of trolox equivalent per 420 mg capsule	≥ 800 micromole trolox equivalent per gram	> 200	down regulated	upregulated	> 300	upregulated	400
